Where two headings read alike, the source gives them in different places.
Columns and labels:
[1] = target: T1, hNPY2R (Homo sapiens, UniProt P49146); experiment: hNPY2R CreLuc assay in 0.5% and 100% plasma (HEK-293 CRE-luciferase reporter cells); assay type: cell-based; conditions: HEK-293 reporter cells
T1 construct: expressed in transfected cells; host or cells: HEK-293 CRE-luciferase reporter cells
T1 sequence (P49146 1-381): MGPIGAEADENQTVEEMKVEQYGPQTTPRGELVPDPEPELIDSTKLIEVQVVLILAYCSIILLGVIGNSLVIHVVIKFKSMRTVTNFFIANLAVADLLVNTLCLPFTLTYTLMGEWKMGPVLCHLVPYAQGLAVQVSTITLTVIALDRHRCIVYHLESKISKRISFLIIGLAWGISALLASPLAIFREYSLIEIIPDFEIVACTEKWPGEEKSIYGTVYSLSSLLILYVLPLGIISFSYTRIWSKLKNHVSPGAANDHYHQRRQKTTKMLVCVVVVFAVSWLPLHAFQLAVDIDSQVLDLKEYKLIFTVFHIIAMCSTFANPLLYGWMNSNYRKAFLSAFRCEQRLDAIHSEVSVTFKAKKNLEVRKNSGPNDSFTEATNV

[2] = target: T2, hGIPR (Homo sapiens, UniProt P48546); experiment: hGIPR CreLuc assay in 0.5% and 100% plasma (CHO CRE-luciferase reporter cells); assay type: cell-based; conditions: 0.5% human plasma, read-out: hGIPR 0.5% hP
T2 construct: expressed in transfected cells; host or cells: CHO CRE-luciferase reporter cells
T2 sequence (P48546 22-466): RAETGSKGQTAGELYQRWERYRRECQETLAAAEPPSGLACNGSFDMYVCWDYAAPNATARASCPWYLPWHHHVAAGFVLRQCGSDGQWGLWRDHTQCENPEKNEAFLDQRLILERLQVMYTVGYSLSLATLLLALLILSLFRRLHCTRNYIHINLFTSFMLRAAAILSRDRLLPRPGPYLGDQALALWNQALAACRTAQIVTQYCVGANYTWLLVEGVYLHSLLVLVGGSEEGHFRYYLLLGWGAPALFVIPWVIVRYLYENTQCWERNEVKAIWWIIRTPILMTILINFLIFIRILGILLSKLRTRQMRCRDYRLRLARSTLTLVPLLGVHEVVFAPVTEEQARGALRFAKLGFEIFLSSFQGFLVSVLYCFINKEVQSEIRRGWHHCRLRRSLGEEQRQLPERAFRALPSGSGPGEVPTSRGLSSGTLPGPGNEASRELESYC

[3] = Solubility in 0.1 M phosphate buffer at pH 7; assay type: physicochemical; conditions: 0.1 M phosphate buffer at pH 7, 10 mg/mL final peptide concentration, shaking 2 hours at room temperature, peptides as TFA-salts; measured sample pH 6.5-7.0
[4] = 100% human plasma, read-out: hNPY2R 100% hP
[5] = 0.5% human plasma, read-out: hNPY2R 0.5% hP

EC50 [1, 4] [nM] | EC50 [2] [nM] | solubility at 2 h [3] [µg/mL] | EC50 [1, 5] [nM] | Compound
135 | 0.2 | 5200 |  | CC[C@H](C)[C@H](NC(=O)[C@H](CC(C)C)NC(=O)[C@H](Cc1c[nH]cn1)NC(=O)[C@H](CCCNC(=N)N)NC(=O)[C@@H](NC(=O)[C@H](Cc1ccccc1)NC(=O)[C@H](C)NC(=O)C(C)(C)NC(=O)[C@H](CCC(N)=O)NC(=O)[C@H](C)NC(=O)[C@H](CCC(N)=O)NC(=O)[C@H](CCCCN)NC(=O)[C@H](CCC(=O)O)NC(=O)[C@H](CC(C)C)NC(=O)C(C)(C)NC(=O)[C@@H](NC(=O)[C@H](CO)NC(=O)[C@H](Cc1ccc(O)cc1)NC(=O)[C@H](CC(=O)O)NC(=O)[C@H](CO)NC(=O)[C@@H](NC(=O)[C@H](Cc1ccccc1)NC(=O)[C@@H](NC(=O)CNC(=O)[C@H](CCC(=O)O)NC(=O)C(C)(C)NC(=O)[C@@H](N)Cc1ccc(O)cc1)[C@@H](C)O)[C@@H](C)O)[C@@H](C)CC)C(C)C)C(=O)N[C@@H](CC(N)=O)C(=O)N[C@@H](CCCCNC(=O)CCCCCNC(=O)CC[C@H](NC(=O)CC[C@H](NC(=O)CC[C@H](NC(=O)CC[C@H](NC(=O)CC[C@H](NC(=O)CC[C@H](NC(=O)CCCCCCCCCCCCCCCCCCC(=O)O)C(=O)O)C(=O)O)C(=O)O)C(=O)O)C(=O)O)C(=O)O)C(=O)NC(C)(C)C(=O)N[C@H](C(=O)N[C@@H](CCCNC(=N)N)C(=O)N[C@@H](CCC(N)=O)C(=O)N[C@@H](CCCNC(=N)N)C(=O)N[C@@H](Cc1ccc(O)cc1)C(N)=O)[C@@H](C)O [Compound 157, Y-Aib-E-G-T-F-T-S-D-Y-S-I-Aib-L-E-K-Q-A-Q-Aib-A-F-V-R-H-L-I-N-K(1,3)-Aib-T-R-Q-R-Y-NH2.C20DA-gGlu-gGlu-gGlu-gGlu-gGlu-gGlu-AHX(1,2)]
43.8 | 0.7 | 8700 |  | CC[C@H](C)[C@H](NC(=O)[C@H](CC(C)C)NC(=O)[C@H](Cc1c[nH]cn1)NC(=O)[C@H](CCCNC(=N)N)NC(=O)[C@@H](NC(=O)[C@H](Cc1ccccc1)NC(=O)[C@H](C)NC(=O)C(C)(C)NC(=O)[C@H](CCC(=O)O)NC(=O)[C@H](C)NC(=O)[C@H](CCC(N)=O)NC(=O)[C@H](CCCCN)NC(=O)[C@H](CCC(=O)O)NC(=O)[C@H](CC(C)C)NC(=O)C(C)(C)NC(=O)[C@@H](NC(=O)[C@H](CO)NC(=O)[C@H](Cc1ccc(O)cc1)NC(=O)[C@H](CC(=O)O)NC(=O)[C@H](CO)NC(=O)[C@@H](NC(=O)[C@H](Cc1ccccc1)NC(=O)[C@@H](NC(=O)CNC(=O)[C@H](CCC(=O)O)NC(=O)C(C)(C)NC(=O)[C@@H](N)Cc1ccc(O)cc1)[C@@H](C)O)[C@@H](C)O)[C@@H](C)CC)C(C)C)C(=O)N[C@@H](CC(N)=O)C(=O)N[C@@H](CCCCNC(=O)[C@@H](N)CCCCNC(=O)CC[C@H](NC(=O)CC[C@H](NC(=O)COCCOCCNC(=O)CC[C@H](NC(=O)CC[C@H](NC(=O)CC[C@H](NC(=O)CCCCCCCCCCCCCCCCCCC(=O)O)C(=O)O)C(=O)O)C(=O)O)C(=O)O)C(=O)O)C(=O)NC(C)(C)C(=O)N[C@H](C(=O)N[C@@H](CCCNC(=N)N)C(=O)N[C@@H](CCC(N)=O)C(=O)N[C@@H](CCCNC(=N)N)C(=O)N[C@@H](Cc1ccc(O)cc1)C(N)=O)[C@@H](C)O [Compound 162, Y-Aib-E-G-T-F-T-S-D-Y-S-I-Aib-L-E-K-Q-A-E-Aib-A-F-V-R-H-L-I-N-K(1,3)-Aib-T-R-Q-R-Y-NH2.C20DA-gGlu-gGlu-gGlu-OEG-gGlu-gGlu-eLys(1,2)]
 | 0.3 | 5000 | 17.1 | CC[C@H](C)[C@H](NC(=O)[C@H](CO)NC(=O)[C@H](Cc1ccc(O)cc1)NC(=O)[C@H](CC(=O)O)NC(=O)[C@H](CO)NC(=O)[C@@H](NC(=O)[C@H](Cc1ccccc1)NC(=O)[C@@H](NC(=O)CNC(=O)[C@H](CCC(=O)O)NC(=O)C(C)(C)NC(=O)[C@@H](N)Cc1ccc(O)cc1)[C@@H](C)O)[C@@H](C)O)C(=O)N[C@@H](C)C(=O)N[C@@H](CC(C)C)C(=O)N[C@@H](CCC(=O)O)C(=O)N[C@@H](CCCCN)C(=O)N[C@@H](CCC(N)=O)C(=O)N[C@@H](C)C(=O)N[C@@H](CCC(N)=O)C(=O)NC(C)(C)C(=O)N[C@@H](C)C(=O)N[C@@H](Cc1ccccc1)C(=O)N[C@H](C(=O)N[C@@H](CCCNC(=N)N)C(=O)N[C@@H](Cc1c[nH]cn1)C(=O)N[C@@H](CC(C)C)C(=O)N[C@H](C(=O)N[C@@H](CC(N)=O)C(=O)N[C@@H](CCCCNC(=O)[C@@H](N)CCCCNC(=O)CC[C@H](NC(=O)CC[C@H](NC(=O)CC[C@H](NC(=O)CC[C@H](NC(=O)CC[C@H](NC(=O)CC[C@H](NC(=O)CCCCCCCCCCCCCCCCC(=O)O)C(=O)O)C(=O)O)C(=O)O)C(=O)O)C(=O)O)C(=O)O)C(=O)NC(C)(C)C(=O)N[C@H](C(=O)N[C@@H](CCCNC(=N)N)C(=O)N[C@@H](CCC(N)=O)C(=O)N[C@@H](CCCNC(=N)N)C(=O)N[C@@H](Cc1ccc(O)cc1)C(N)=O)[C@@H](C)O)[C@@H](C)CC)C(C)C [Compound 165, Y-Aib-E-G-T-F-T-S-D-Y-S-I-A-L-E-K-Q-A-Q-Aib-A-F-V-R-H-L-I-N-K(1,3)-Aib-T-R-Q-R-Y-NH2.C18DA-gGlu-gGlu-gGlu-gGlu-gGlu-gGlu-eLys(1,2)]
 | 0.4 | 4600 | 43.8 | CC[C@H](C)[C@H](NC(=O)[C@H](CC(C)C)NC(=O)[C@H](Cc1c[nH]cn1)NC(=O)[C@H](CCCNC(=N)N)NC(=O)[C@@H](NC(=O)[C@H](Cc1ccccc1)NC(=O)[C@H](C)NC(=O)[C@H](CCC(=O)O)NC(=O)[C@H](CCC(N)=O)NC(=O)[C@H](C)NC(=O)[C@H](CCC(N)=O)NC(=O)[C@H](CCCCN)NC(=O)[C@H](CCC(=O)O)NC(=O)[C@H](CC(C)C)NC(=O)C(C)(C)NC(=O)[C@@H](NC(=O)[C@H](CO)NC(=O)[C@H](Cc1ccc(O)cc1)NC(=O)[C@H](CC(=O)O)NC(=O)[C@H](CO)NC(=O)[C@@H](NC(=O)[C@H](Cc1ccccc1)NC(=O)[C@@H](NC(=O)CNC(=O)[C@H](CCC(=O)O)NC(=O)C(C)(C)NC(=O)[C@@H](N)Cc1ccc(O)cc1)[C@@H](C)O)[C@@H](C)O)[C@@H](C)CC)C(C)C)C(=O)N[C@@H](CC(N)=O)C(=O)N[C@@H](CCCCNC(=O)[C@@H](N)CCCCNC(=O)CC[C@H](NC(=O)CC[C@H](NC(=O)CC[C@H](NC(=O)CC[C@H](NC(=O)CC[C@H](NC(=O)CC[C@H](NC(=O)CCCCCCCCCCCCCCCCC(=O)O)C(=O)O)C(=O)O)C(=O)O)C(=O)O)C(=O)O)C(=O)O)C(=O)NC(C)(C)C(=O)N[C@H](C(=O)N[C@@H](CCCNC(=N)N)C(=O)N[C@@H](CCC(N)=O)C(=O)N[C@@H](CCCNC(=N)N)C(=O)N[C@@H](Cc1ccc(O)cc1)C(N)=O)[C@@H](C)O [Compound 170, Y-Aib-E-G-T-F-T-S-D-Y-S-I-Aib-L-E-K-Q-A-Q-E-A-F-V-R-H-L-I-N-K(1,3)-Aib-T-R-Q-R-Y-NH2.C18DA-gGlu-gGlu-gGlu-gGlu-gGlu-gGlu-eLys(1,2)]
